The text below walks through data of patent publication US9439941B2, “Nano cancer barrier device (NCBD) to immobilize and inhibit the division of metastic cancer stem cells” (The University of Hong Kong, priority 2009, dated 2016).

Entries after “also recorded” stand apart in the source; their conditions may differ.

For data set [1], the system named is hormone refractory prostate cancer (HRPC). The note with it: HRPC patients, Docetaxel-based chemotherapy; cited from earlier work.
Data set [2] relates to prostate cancer cells (DU145). Kind of data set: spheroid (prostasphere) / colony formation of prostate cancer stem cells embedded in SAP, non-adherent plate. Format: cell-based. The note with it: for state of CSCs: 14 days after plating; for prostasphere detection: 14 days after plating in non-adherent plate. How it is done:
The SAP solution was prepared by using RADA16-I dry powder (made in the Ellis-Behnke lab) and mixed in an Eppendorf tube. The solution contained 10 or 30 mg of RADA16-I powder in 1 ml of Milli-Q water (Millipore Corp., Billerica Mass.), mixed, then sonicated for 30 seconds and filtered; this produced 1% and 3% SAP, respectively.
Pre-mix medium for spheroid assay. Mix 50 ml SFM (DMEM-F12-high glucose with 0.25% methylcellulose) and add 1 ml b27 per 50 ml SFM (50× stock). The growth factors are: fibroblast growth factor-basic (FGF) (Sigma cat. no. F0291)—25 μg dissolved in 1.0 ml of 5 mM Tris (pH 7.6) and sterilized with a 0.22 μm pore size filter (make 20 μl aliquots (stored at −20° C.) and add 10 μl per 50 ml of SFM); Epidermal growth factor (EGF) (Sigma cat. no. E4127)—0.1 mg dissolved in 1.0 ml of phosphate-buffered saline containing 0.1% bovine serum albumin (Sigma cat. no. A7511) (make […] (stored at −20° C.) and add 10 μl per 50 ml of SFM); Insulin 10 mg/ml—add 20 μl per 50 ml.
To remove prostate cancer cells (DU145, ATCC, Rockville, Md.) from adherent culture, trypsin was used to liberate and then re-suspend 400 cells per 1 μl plated in each well (10). Before plating the cells, the plate was coated with polyhema (Sigma, St. Louis, Mo.).
(§1) Untreated SAP solution has a very low pH (about 3-4). We neutralized the SAP solution in culture medium before implanting cells in the material. Briefly, for both 1% and 3%, SAP was placed in a dry dish and then 500 μl of culture medium added at the edge of the dish. This was to ensure that the culture medium would not wash the SAP away. The self-assembly occurred as soon as the material made contact with the medium. The medium was changed once at 30 minutes, and then removed. The 400 cells were placed either in the assembled SAP or a control well. Culture medium was then added at the edge of the dish in both SAP cases, and topped up every 2 days to compensate for evaporation. On day 14, the cells were vigorously washed out of the SAP using culture medium. In the 1% case, group 1 (n=4), the cells and SAP were moved to a new well and contents were washed multiple times to separate them from the SAP. In the 3% case, group 2 (n=4), the wells were also vigorously washed to remove the cells from the SAP. However, in both the 1% and 3% SAP concentration, not all of the cells were liberated. The culture continued to grow for 28 days at which point the wells were fixed with 4% paraformaldahyde.

The nature of data set [3]: pH of untreated SAP solution. The class given is physicochemical. The note with it: before neutralization in culture medium. How it is done: as §1

On to `CC(=O)O[C@@]12CO[C@@H]1C[C@H](O)[C@@]1(C)C(=O)[C@H](O)C3=C(C)[C@@H](OC(=O)[C@H](O)[C@@H](NC(=O)OC(C)(C)C)c4ccccc4)C[C@@](O)([C@@H](OC(=O)c4ccccc4)[C@H]21)C3(C)C` [Docetaxel], for which the “improvement of median survival time” value in data set [1] is 3 months.

Regarding n-RADARADARADARADA-c [SAP], the “state of CSCs” value in data set [2] (1% SAP) and in data set [2] (3% SAP) was “most of the CSCs remained single cells” throughout. For the same compound, the prostasphere detection entry in data set [2] (1% SAP) and in data set [2] (3% SAP) was “no prostaspheres could be detected” each time. Moreover, the “time remaining cells continued to be quiescent (no division, no colony formation)” value in data set [2] (1% SAP, cells not liberated by day-14 washout) is “up to 28 days”. Besides, in data set [2] (1% SAP, day 10), the “state of cells at day 10 (FIG. 1G)” value is “still single cells”. Also, in data set [2] (1% SAP, group 1 (n=4)), the “cell division and colony formation while cells are in the material” value is “remained quiescent; also recorded: delayed division and formation of colonies”. Further, in data set [2] (1% and 3% SAP), the “colonies when cells completely surrounded by the material” value is reported as “no colonies were seen”. Also, the “colonies when part of the cell was exposed” value in data set [2] (1% and 3% SAP, some cases) is “a colony of reduced size was seen”. Besides, the “time proliferation of cells was suspended” value in data set [2] (1% and 3% SAP, experiment then stopped) is given as 28 days. In addition, in data set [2] (3% SAP, at 28 days), the “cell division or colony formation of cells that remained in the material” value was “no cell division or colony formation”. In addition, in data set [2] (3% SAP, day 10), the “state of cells at day 10 (FIG. 1H)” value is “still single cells”. Also, in data set [2] (3% SAP, day 28), the “size of single cell remaining in SAP (FIG. 1O)” value is recorded as “still the same size as day 1”. Further, the “time CSCs remained quiescent” value in data set [2] (CSCs from prostate cancer cell lines embedded in SAP) is recorded as “more than 28 days”. Further, the “self-renewal of prostate CSC” value in data set [2] (SAP, viability and CSC property preserved) is “completely inhibit”. For the same compound, in data set [2] (cells washed out of 1% SAP), the “time until colonization visible post-washout” value was found to be 10 days. The “viability and self-renewal of embedded cells after washout” value in data set [2] (cells washed out of 1% SAP and replated) was “viable and capable of self-renewal”. Further, in data set [2] (cells washed out of 1% SAP at day 14, replated in non-adherent plate), the “time until prostaspheres visible after washout” value is 8 days. Besides, the “time until prostaspheres evident post-washout” value in data set [2] (cells washed out of 3% SAP at day 14) is reported as 8 days. The “division of cancer cells in vitro and subsequent colony formation” value in data set [2] (each group, cells placed in the SAP) is reported as “stopped”. Moreover, the “pH of untreated SAP solution” value in data set [3] is 3-4.
